Laboratory results from patent US3936463A, “Benzomorphanes” (priority 1972, dated 1976).

How the values were obtained:
[1] = tested on: Morphine-dependent monkeys; experiment: Morphine-antagonistic action (provocation of withdrawal symptoms) in morphine-dependent monkeys; assay type: in vivo, monkey; details: grade, scale not defined
Procedure: (§1) The numbering of the compounds is the same as the numbering of the preparative examples. […] The ED50 and LD50 were calculated relative to the base.

rat tails = experiment: animal or person; details: for ED50: Rattus norvegicus, sc, read-out: Analgesic action in heat radiation test on rat tails, ED 50; for Analgesic action in heat radiation test on rat tails, ED 50 / Therapeutic index LD 50 / ED 50: rats, s.c.; for Analgesic action in heat radiation test on rat tails, ED 50: calculated relative to the base; for Therapeutic index LD 50 / ED 50: calculated from LD 50 and ED 50
Procedure: as §1

Morphine-dependent rats [2] = experiment: Morphine-antagonistic action (provocation of withdrawal symptoms) in morphine-dependent rats; assay type: in vivo, rat; details: grade, scale not defined
Procedure: as §1

Morphine-dependent rats [3] = experiment: Morphine replacement action (elimination of withdrawal symptoms) in morphine-dependent rats; assay type: in vivo, rat; details: grade, scale not defined
Procedure: as §1

in vivo = details: rat, sc
Procedure: as §1

[4] = tested on: Morphine-dependent monkeys; experiment: Morphine-replacement action (elimination of withdrawal symptoms) in morphine-dependent monkeys; assay type: in vivo, monkey; details: grade, scale not defined
Procedure: as §1

| Structure (SMILES) | Morphine-antagonistic action (provocation of withdrawal symptoms) [1] | ED50 (rat tails) | Analgesic action in heat radiation test on rat tails, ED 50 (rat tails) | Morphine-antagonistic action (provocation of withdrawal symptoms) (Morphine-dependent rats [2]) | Morphine replacement action (elimination of withdrawal symptoms) (Morphine-dependent rats [3]) | LD50 (in vivo) | Therapeutic index LD 50 / ED 50 (rat tails) | Morphine-replacement action (elimination of withdrawal symptoms) [4] |
| --- | --- | --- | --- | --- | --- | --- | --- | --- |
| CCC12CCN(CC3CC3)C(Cc3ccc(OCCCOC(=O)COc4ccccc4)cc31)C2C (stereo not drawn) [Example 21a, 2-Cyclopropylmethyl-5-ethyl-9-methyl-2'-[3-phenoxyacetoxypropoxy-(1)]-6,7-benzomorphan] | 2 | 1.2 mg/kg | – | – | – | – | – | – |
| CCC12CCN(CC3CC3)C(Cc3ccc(OCCCOC(=O)c4cccnc4)cc31)C2C (stereo not drawn) [Example 20] | 1 | 1.2 mg/kg | – | – | – | – | – | – |
| CCC12CCN(CC3CC3)C(Cc3ccc(OCC(C)COC(C)=O)cc31)C2C (stereo not drawn) [Example 6a, 2-Cyclopropylmethyl-5-ethyl-9-methyl-2'-[3-acetoxyisobutoxy-(1)]-6,7-benzomorphan] | 3 | 0.42 mg/kg | – | – | – | – | – | – |
| CCC12CCN(CC3CC3)C(Cc3ccc(OCCCOC(=O)c4ccccc4)cc31)C2C (stereo not drawn) [Example 4e, 2-Cyclopropylmethyl-5-ethyl-9-methyl-2'-[3-benzoyloxy-propoxy-(1)]-6,7-benzomorphan] | 2 | 0.42 mg/kg | – | – | – | – | – | – |
| C/C=C/C(=O)OCC(C)COc1ccc2c(c1)C1(CC)CCN(CC3CC3)C(C2)C1C (stereo not drawn) [Example 6b, 2-Cyclopropylmethyl-5-ethyl-9-methyl-2'-[3-crotonoyloxyisobutoxy-(1)]-6,7-benzomorphan] | 3 | 0.31 mg/kg | – | – | – | – | – | – |
| CN1CC[C@]23c4c5ccc(O)c4O[C@H]2[C@@H](O)C=C[C@H]3[C@H]1C5 [Morphine, reference compound] | – | – | 1.78 mg/kg | – | – | – | – | – |
| CCC12CCN(CC3CC3)C(Cc3ccc(OCCCCOC(=O)C(C)C)cc31)C2C (stereo not drawn) [Example 10b, 2-Cyclopropylmethyl-5-ethyl-9-methyl-2'-[4-isobutyryloxybutoxy-(1)]-6,7-benzomorphan] | – | 0.42 mg/kg | – | 1 | 0 | > 500 mg/kg | > 1,190 | – |
| CCC12CCN(CC3CC3)C(Cc3ccc(OCCCOC(=O)C(C)(C)C)cc31)C2C (stereo not drawn) [Example 4a, 2-Cyclopropylmethyl-5-ethyl-9-methyl-2'-[3-pivaloyloxy-propoxy-(1)]-6,7-benzomorphan] | – | 0.97 mg/kg | – | 1 | 0 | > 500 mg/kg | > 515 | – |
| CCOC(=O)C1(c2ccccc2)CCN(C)CC1 [Pethidine, reference compound] | – | 5.7 mg/kg | – | – | – | 113 mg/kg | 20 | – |
| CCC(=O)OCCCCOc1ccc2c(c1)C1(CC)CCN(CC3CC3)C(C2)C1C (stereo not drawn) [Example 10a] | – | 0.62 mg/kg | – | 2 | 0 | > 500 mg/kg | > 806 | – |
| CCC12CCN(CC3CC3)C(Cc3ccc(OCC(C)CCOC(C)=O)cc31)C2C (stereo not drawn) [Example 17, 2-Cyclopropylmethyl-5-ethyl-9-methyl-2'-[4-acetoxy-2-methylbutoxy-(1)]-6,7-benzomorphan] | 2 | – | 0.96 mg/kg | – | – | – | – | – |
| CC(C)=CCN1CCC2(C)c3cc(O)ccc3CC1C2C (stereo not drawn) [Pentazocine, reference compound] | 2 | 4.8 mg/kg | – | 2 | 1 | 140 mg/kg | 29 | – |
| CCC(=O)OCCCOc1ccc2c(c1)C1(CC)CCN(CC3CC3)C(C2)C1C (stereo not drawn) [Example 2a, 2-Cyclopropylmethyl-5-ethyl-9-methyl-2'-[3-propionyloxy-propoxy-(1)]-6,7-benzomorphan] | 2 | 0.49 mg/kg | – | 2 | 0 | 296 mg/kg | 604 | 0 |
| C/C=C/C(=O)OCCCOc1ccc2c(c1)C1(CC)CCN(CC3CC3)C(C2)C1C (stereo not drawn) [Example 4d, 2-Cyclopropylmethyl-5-ethyl-9-methyl-2'-[3-crotonoyloxy-propoxy-(1)]-6,7-benzomorphan] | 3 | 0.35 mg/kg | – | 2 | 0 | – | – | – |
| CCC12CCN(CC3CC3)C(Cc3ccc(OCCCCOC(C)=O)cc31)C2C (stereo not drawn) [Example 9, 2-Cyclopropylmethyl-5-ethyl-9-methyl-2'-[4-acetoxybutoxy-(1)]-6,7-benzomorphan] | – | 0.61 mg/kg | – | 1 | 0-1 | > 500 mg/kg | > 820 | – |
| COc1ccc2c3c1O[C@H]1[C@@H](O)C=C[C@H]4[C@@H](C2)N(C)CC[C@@]341 [Codeine, reference compound] | – | 4.5 mg/kg | – | 0 | 3 | 202 mg/kg | 51 | 3 |
| CC(=O)OCCCOc1ccc2c(c1)C1(C)CCN(CC3CC3)C(C2)C1C (stereo not drawn) [Example 7, 2-Cyclopropylmethyl-5,9-dimethyl-2'-[3-acetoxypropoxy-(1)]-6,7-benzomorphan] | – | 1.6 mg/kg | – | 1 | 0 | ~400 mg/kg | ~ 258 | – |
| CCC12CCN(CC3CC3)C(Cc3ccc(OC(C)(C)COC(C)=O)cc31)C2C (stereo not drawn) [Example 11, 2-Cyclopropylmethyl-5-ethyl-9-methyl-[1-acetoxy-2-methyl-propoxy-(2)]-6,7-benzomorphan] | 1 | 0.47 mg/kg | – | – | – | – | – | – |
| CCC12CCN(CC3CC3)C(Cc3ccc(OCCCOC(C)=O)cc31)C2C (stereo not drawn) [Example 1, 2-Cyclopropylmethyl-5-ethyl-9-methyl-2'-[3-acetoxypropoxy-(1)]-6,7-benzomorphan] | 1-2 | 0.42 mg/kg | – | 2 | 0 | 352 mg/kg | 838 | 0 |
| CCOC(=O)N(C)C(=O)OCCCOc1ccc2c(c1)C1(CC)CCN(CC3CC3)C(C2)C1C (stereo not drawn) [Example 23, 2-cyclopropylmethyl-5-ethyl-9-methyl-2'-[3-N-ethoxycarbonyl-N-methyl-carbamoyloxypropoxy-(1)]-6,7-benzomorphan] | 2 | 1.2 mg/kg | – | – | – | – | – | – |
| CCC(=O)OCCC(C)COc1ccc2c(c1)C1(CC)CCN(CC3CC3)C(C2)C1C (stereo not drawn) [Example 18] | 2 | – | 1.36 mg/kg | – | – | – | – | – |
| CCC(=O)OCCCOc1ccc2c(c1)C1(C)CCN(CC3CC3)C(C2)C1C (stereo not drawn) [Example 8, 2-Cyclopropylmethyl-5-9-dimethyl-2'-[3-propionyloxypropoxy-(1)]-6,7-benzomorphan] | – | 1.6 mg/kg | – | 1 | 1 | ~425 mg/kg | ~ 262 | – |
| CCC12CCN(CC3CC3)C(Cc3ccc(OCCCOC(=O)C(C)C)cc31)C2C (stereo not drawn) [Example 2b, 2-Cyclopropylmethyl-5-ethyl-9-methyl-2'-[3-isobutyryloxy-propoxy-(1)]-6,7-benzomorphan] | – | 1 mg/kg | – | 1 | 0 | ~300 mg/kg | ~ 300 | – |
